Results on twelve molecules are retold here after PubChem BioAssay (NCI).

Test systems include A498 renal; HCT-116 colon; HOP-62 NSCLC; HT29 colon; SF-268 CNS; SK-MEL-2 melanoma; SNB-19 CNS; UACC-257 melanoma; MCF7 breast; NCI/ADR-RES ovarian.
Holding throughout (assay): inhibition of tumour cell growth, NCI panel, 48 h

SMILES strings stand for the structures.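 Values below derive from 48-hour exposures of cells grown in 96-well plates, with endpoints linearly interpolated between the two concentrations bracketing the appropriate inhibition level. GI50: concentration for 50% inhibition of growth. Definition used: TGI = concentration required for complete inhibition of growth.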

As for `CCSC1(SCC)CC(Cc2ccc(OC)cc2)N(C=NC(C)(C)C)C1` (stereo unspecified), the TGI was more than 100 µM in the assay on A498 renal; 92.8 µM in the assay on HCT-116 colon; more than 100 µM in the assay on HOP-62 NSCLC; 51.5 µM with HT29 colon; more than 100 µM with SF-268 CNS; more than 100 µM in the assay on SK-MEL-2 melanoma. For the same molecule, the values for the TGI in the assay on SNB-19 CNS and in the assay with UACC-257 melanoma were more than 100 µM and 47.5 µM, respectively.
For `Cc1cccc(C(=O)/C=C/SC(=NC#N)SCc2ccccc2)c1`, the GI50 in the assay on HCT-116 colon is 27.2 µM; in the assay with HOP-62 NSCLC it was 23.2 µM; in the assay with HT29 colon, 56.5 µM; with MCF7 breast, 34.3 µM; in the assay on NCI/ADR-RES ovarian, 24.4 µM; in the assay on SF-268 CNS it was 28.8 µM. Also, the values for the GI50 in the assay with SK-MEL-2 melanoma, in the assay on SNB-19 CNS and with UACC-257 melanoma were 48.5 µM, 36.1 µM and 18.1 µM, respectively. Moreover, the TGI in the assay with HCT-116 colon was more than 100 µM; in the assay on HOP-62 NSCLC, 45.4 µM; with HT29 colon, more than 100 µM; in the assay on MCF7 breast it was more than 100 µM; in the assay on NCI/ADR-RES ovarian, 64.5 µM; in the assay on SF-268 CNS, more than 100 µM. Further, the TGI was more than 100 µM in the assay with SK-MEL-2 melanoma, more than 100 µM with SNB-19 CNS and 35.9 µM in the assay on UACC-257 melanoma.
With `Cn1nnnc1N/N=C/c1ccccc1`, the TGI with HCT-116 colon, with HOP-62 NSCLC, in the assay with HT29 colon, in the assay with MCF7 breast, in the assay on NCI/ADR-RES ovarian and in the assay on SF-268 CNS was more than 10 µM throughout. Moreover, the TGI in the assay with SK-MEL-2 melanoma, with SNB-19 CNS and in the assay on UACC-257 melanoma was more than 10 µM throughout.
Take `CCOC(=O)C1=C(O)CSC1=Nc1ccccc1`: the TGI in the assay on HCT-116 colon, in the assay on HOP-62 NSCLC, in the assay with HT29 colon, in the assay on SF-268 CNS, in the assay on SK-MEL-2 melanoma and in the assay on SNB-19 CNS was more than 100 µM each time. Also, the TGI in the assay on UACC-257 melanoma was more than 100 µM.
In the case of `CN(C)c1ccc(/C=C2\N=C(c3ccc([N+](=O)[O-])cc3)OC2=O)cc1`, the TGI with A498 renal, with HCT-116 colon, in the assay on HOP-62 NSCLC, with HT29 colon, with MCF7 breast and with SF-268 CNS was more than 100 µM in each case. Moreover, the TGI in the assay on SK-MEL-2 melanoma, with SNB-19 CNS and with UACC-257 melanoma was more than 100 µM each time.
On to `CC(C)(C)CC(C)(C)c1cc2c(O)c(c1)Cc1cc(C(C)(C)CC(C)(C)C)cc(c1O)Cc1cc(C(C)(C)CC(C)(C)C)cc(c1O)Cc1cc(C(C)(C)CC(C)(C)C)cc(c1O)Cc1cc(C(C)(C)CC(C)(C)C)cc(c1O)Cc1cc(C(C)(C)CC(C)(C)C)cc(c1O)C2`, for which the TGI with HCT-116 colon, with HOP-62 NSCLC, in the assay with HT29 colon, in the assay with SF-268 CNS, with SK-MEL-2 melanoma and in the assay on SNB-19 CNS was more than 100 µM in each case. In the assay with UACC-257 melanoma, this molecule displayed a TGI of more than 100 µM.
Regarding `C=CC(C=O)C1(O)CCOC(=O)/C1=C\N` (stereo unspecified), the GI50 in the assay with HCT-116 colon, in the assay on HOP-62 NSCLC, in the assay with HT29 colon, in the assay on MCF7 breast, with NCI/ADR-RES ovarian and in the assay on SF-268 CNS was more than 100 µM throughout. Further, the GI50 with SK-MEL-2 melanoma, with SNB-19 CNS and in the assay with UACC-257 melanoma was more than 100 µM each time. In addition, the TGI in the assay with HCT-116 colon, with HOP-62 NSCLC, in the assay with HT29 colon, with MCF7 breast, in the assay on NCI/ADR-RES ovarian and with SF-268 CNS was more than 100 µM throughout. Moreover, the TGI with SK-MEL-2 melanoma, in the assay with SNB-19 CNS and with UACC-257 melanoma was more than 100 µM each time.
Take `Cc1cc(=O)[nH]o1`: the TGI in the assay on HCT-116 colon, in the assay with HOP-62 NSCLC, in the assay on HT29 colon, in the assay with MCF7 breast, in the assay on NCI/ADR-RES ovarian and in the assay on SF-268 CNS was more than 100 µM each time. In addition, the TGI in the assay with SK-MEL-2 melanoma, in the assay on SNB-19 CNS and in the assay with UACC-257 melanoma was more than 100 µM in each case.
As to `O=C1N(c2ccccc2)C(=O)C2(SC=NN2Cc2ccccc2)N1c1ccccc1` (stereo unspecified), the TGI in the assay on A498 renal, in the assay with HCT-116 colon, in the assay on HOP-62 NSCLC, with HT29 colon, with SF-268 CNS and with SNB-19 CNS was more than 100 µM in each case. Further, the TGI in the assay with UACC-257 melanoma was more than 100 µM.
`CO/N=C(\C)c1cccc(Nc2cc(-c3ccccc3)nc3c(O)cccc23)c1`: the GI50 in the assay on HCT-116 colon is 3.21 µM; in the assay with HOP-62 NSCLC, 3.47 µM; in the assay on HT29 colon, 21.8 µM; in the assay on NCI/ADR-RES ovarian, 2.02 µM; with SK-MEL-2 melanoma, 5.76 µM; in the assay with UACC-257 melanoma it was 4.07 µM. Also, the TGI was 15.2 µM with HCT-116 colon; 8.39 µM in the assay with HOP-62 NSCLC; 59.7 µM in the assay with HT29 colon; 13.5 µM in the assay with NCI/ADR-RES ovarian; more than 100 µM in the assay on SK-MEL-2 melanoma; 22.6 µM in the assay with UACC-257 melanoma.
As to `COc1ccc(C(=O)C(C(=O)C(=O)Nc2ccc(Cl)c(Cl)c2)c2ccc(OC)cc2)cc1` (stereo unspecified), the TGI in the assay on A498 renal, with HCT-116 colon, with HOP-62 NSCLC, with HT29 colon, in the assay on SF-268 CNS and in the assay with SK-MEL-2 melanoma was more than 100 µM throughout. Also, the TGI with SNB-19 CNS and in the assay on UACC-257 melanoma was more than 100 µM in each case.
In the case of `CC/C(=C(/CC)c1ccc([O-])cc1)c1ccc([O-])cc1.CC/C(=C(\CC)c1ccc([O-])cc1)c1ccc([O-])cc1.O=C([CH-]C(=O)c1ccccc1)c1ccccc1.O=C([CH-]C(=O)c1ccccc1)c1ccccc1.O=C([CH-]C(=O)c1ccccc1)c1ccccc1.O=C([CH-]C(=O)c1ccccc1)c1ccccc1.[Ti+4].[Ti+4]`, the GI50 in the assay with HCT-116 colon was 28.8 µM; with HOP-62 NSCLC, 22.5 µM; in the assay with HT29 colon, 29.8 µM; in the assay on SF-268 CNS, 35.8 µM; in the assay on SK-MEL-2 melanoma, 25.8 µM; with SNB-19 CNS, 22.6 µM. For the same molecule, in the assay with UACC-257 melanoma, the GI50 is 28 µM. For the same molecule, the TGI with HCT-116 colon was more than 100 µM; in the assay with HOP-62 NSCLC, 51.3 µM; in the assay on HT29 colon, more than 100 µM; with SF-268 CNS it was more than 100 µM; with SK-MEL-2 melanoma, 73.5 µM; in the assay with SNB-19 CNS, 56.2 µM. This molecule also displayed a TGI in the assay on UACC-257 melanoma of more than 100 µM.
